Measured values taken from EP4563146A1 (IRBM S.P.A., priority 2023, dated 2025).
Like-named read-outs stand apart in the source and are kept apart here.

Columns and labels:
[1] = target: Japanese encephalitis virus (JEV)-NS2B-NS3 protease (Japanese encephalitis virus, UniProt P32886, DEL1469-1493); assay: JEV protease inhibition assay; type: biochemical
ZIKV replicon = assay: ZIKV replication inhibition assay (NanoLuc replicon in Vero cells); settings: Zika virus, Vero, 72 h
[2] = target: T1, West Nile Virus (WNV) NS2B-NS3 protease (West Nile virus, UniProt Q9Q6P4); assay: WNV protease inhibition assay; type: biochemical; settings: Table 4; letter codes for IC50
T1 construct: NS2B1423-1470); purchased R&D 2907-SE-020
Text: WNV protease inhibition assay

[3] = read-out: JEV - NS3 protease, 600 nM enzyme, 10 µM Pyr-RTKR-AMC substrate, 25 °C
[4] = read-out: ZIKA Cell_Nanoluc, Vero cells with stable ZIKV replicon, 72 h, Nano-Glo readout

Q: For `COc1ncc(-c2ccc(C[n+]3cc([N-]C(=O)Nc4cc(NC(=O)Cc5noc6ccccc56)cc(C(F)(F)F)c4)on3)cc2)c(C)n1` [Example 20], which IC50 [1, 3] is on record?
A: > 20000 nM

Q: And the EC50 (ZIKV replicon; read-out: ZIKA Cell_Nanoluc)?
A: > 20000 nM

Q: For `COc1ncc(-c2ccc(C[n+]3cc([N-]C(=O)Nc4cc(NC(=O)c5ccccc5)cc(C(F)(F)F)c4)on3)cc2)c(C)n1` [Example 15], which IC50 [1, 3] is on record?
A: 1000 to 20000 nM

Q: What about the EC50 (ZIKV replicon; read-out: ZIKA Cell_Nanoluc) of the same compound?
A: 100 to 1000 nM

Q: Which results are given for `N[C@H]1CC[C@@H]([n+]2cc([N-]C(=O)Nc3cc(NC(=O)Cc4ccccc4)cc(C(F)(F)F)c3)on2)CC1` [Example 91, (3-((1S,4S)-4-Aminocyclohexyl)-1,2,3-oxadiazol-3-ium-5-yl)((3-(2-phenylacetamido)-5-(trifluoromethyl)phenyl)carbamoyl)amide]?
A: IC50 [1]: 1000 to 20000 nM; EC50 (ZIKV replicon; read-out: ZIKA Cell_Nanoluc): > 20000 nM

Q: Which results are given for `N[C@H]1CC[C@H]([n+]2cc([N-]C(=O)Nc3cc(NC(=O)Cc4ccccc4)cc(C(F)(F)F)c3)on2)CC1` [Example 92, (3-((1R,4R)-4-Aminocyclohexyl)-1,2,3-oxadiazol-3-ium-5-yl)((3-(2-phenylacetamido)-5-(trifluoromethyl)phenyl)carbamoyl)amide]?
A: IC50 [1]: 1000 to 20000 nM; EC50 (ZIKV replicon; read-out: ZIKA Cell_Nanoluc): > 20000 nM

Q: Which results are given for `CN(C)C[C@H]1CC[C@@H]([n+]2cc([N-]C(=O)Nc3cc(NC(=O)Cc4ccccc4)cc(C(F)(F)F)c3)on2)CC1` [Example 61, (3-((1S,4S)- -4-((Dimethylamino)methyl)cyclohexyl)-1,2,3-oxadiazol-3-ium-5-yl)((3-(2-phenylacetamido)-5-(trifluoromethyl)phenyl)carbamoyl)amide]?
A: IC50 [1]: 1000 to 20000 nM; EC50 (ZIKV replicon; read-out: ZIKA Cell_Nanoluc): 1000 to 20000 nM

Q: For `CN(C)[C@H]1C[C@H]([n+]2cc([N-]C(=O)Nc3cc(NC(=O)Cc4ccccc4)cc(C(F)(F)F)c3)on2)C1` [Example 55, (3-((1R3R)-3-(Dimethylamino)cyclobutyl)-1,2,3-oxadiazol-3-ium-5-yl)((3-(2-phenyl-acetamido)-5-(trifluoromethyl)phenyl)-carbamoyl)amide], which IC50 [1] is on record?
A: 1000 to 20000 nM

Q: And the EC50 (ZIKV replicon; read-out: ZIKA Cell_Nanoluc)?
A: 1000 to 20000 nM

Q: Which results are given for `NC[C@H]1CC[C@@H]([n+]2cc([N-]C(=O)Nc3cc(NC(=O)Cc4ccccc4)cc(C(F)(F)F)c3)on2)CC1` [Example 59, (3-((1S,4S)-4-(Aminomethyl)cyclohexyl)-1,2,3-oxadiazol-3-ium-5-yl)((3-(2-phenyl-acetamido)-5-(trifluoromethyl)phenyl)-carbamoyl)amide]?
A: IC50 [1]: 1000 to 20000 nM; EC50 (ZIKV replicon; read-out: ZIKA Cell_Nanoluc): 1000 to 20000 nM

Q: What does the source list for `O=C([N-]c1c[n+]([C@H]2CC[C@@H](CNCC(F)(F)F)CC2)no1)Nc1cc(N2CCC(c3ccccc3)C2=O)cc(C(F)(F)F)c1` (stereo partly drawn) [Example 135, ((3-(2-Oxo-3-phenylpyrrolidin-1-yl)-5-(trifluoromethyl)phenyl)carbamoyl)(3-((1S,4S)-4-(((2,2,2-trifluoroethyl)amino)methyl)-cyclohexyl)-1,2,3-oxadiazol-3-ium-5-yl)amide]?
A: IC50 [1]: > 20000 nM; EC50 (ZIKV replicon; read-out: ZIKA Cell_Nanoluc): 1000 to 20000 nM

Q: How did the IC50 [1] turn out when `NC[C@H]1CC[C@H]([n+]2cc([N-]C(=O)Nc3cc(NC(=O)Cc4ccccc4)cc(C(F)(F)F)c3)on2)CC1` [Example 93, (3-((1R,4R)-4-(Aminomethyl)cyclohexyl)-1,2,3-oxadiazol-3-ium-5-yl)((3-(2-phenyl-acetamido)-5-(trifluoromethyl)phenyl)-carbamoyl)amide] was run?
A: 100 to 1000 nM

Q: What about the EC50 (ZIKV replicon; read-out: ZIKA Cell_Nanoluc) of the same compound?
A: 1000 to 20000 nM

Q: `CN(C)C[C@H]1CC[C@H]([n+]2cc([N-]C(=O)Nc3cc(NC(=O)Cc4ccccc4)cc(C(F)(F)F)c3)on2)CC1` [Example 94, (3-((1R,4R)-4-((Dimethylamino)methyl)-cyclohexyl)-1,2,3-oxadiazol-3-ium-5-yl)((3-(2-phenylacetamido)-5-(trifluoromethyl)phenyl)-carbamoyl)amide] was tested. Which IC50 [1, 3] did it give?
A: 1000 to 20000 nM

Q: Which IC50 [1] does the source give for `CN(C)C[C@H]1CC[C@@H]([n+]2cc([N-]C(=O)Nc3cc(N4CCC(c5ccccc5)C4=O)cc(C(F)(F)F)c3)on2)CC1` (stereo partly drawn) [Example 138, (3-((1S,4S)-4-((Dimethylamino)methyl)-cyclohexyl)-1,2,3-oxadiazol-3-ium-5-yl)((3-(2-oxo-3-phenylpyrrolidin-1-yl)-5-(trifluoromethyl)-phenyl)carbamoyl)amide] here?
A: 1000 to 20000 nM

Q: And the EC50 (ZIKV replicon; read-out: ZIKA Cell_Nanoluc)?
A: 1000 to 20000 nM

Q: For `COc1ncc(-c2ccc(C[n+]3cc([N-]C(=O)Nc4cc(NC(=O)Cc5ccc(Cl)cc5)cc(C(F)(F)F)c4)on3)cc2)c(C)n1` [Example 17], which IC50 [1, 3] is on record?
A: > 20000 nM

Q: What about the EC50 (ZIKV replicon; read-out: ZIKA Cell_Nanoluc) of the same compound?
A: 1000 to 20000 nM

Q: For `CNC(=O)[C@@H]1CCC[C@@H]([n+]2cc([N-]C(=O)Nc3cc(NC(=O)Cc4ccccc4C)cc(C(F)(F)F)c3)on2)C1` (racemic) [Example 252, rac-(3-((1R,3R)-3-(Methylcarbamoyl)-cyclohexyl)-1,2,3-oxadiazol-3-ium-5-yl)((3-(2-(o-tolyl)-acetamido)-5-(trifluoromethyl)phenyl)-carbamoyl)amide], which IC50 [2] is on record?
A: 100 to 1000 nM

Q: And the EC50 (ZIKV replicon; [4])?
A: 1000 to 20000 nM

Q: Which results are given for `O=C([N-]c1c[n+]([C@H]2CCC[C@@H](c3cncnc3)C2)no1)Nc1ccnc(C(F)(F)F)c1` [Example 220, (3-((1S,3R)-3-(Pyrimidin-5-yl)cyclohexyl)-1,2,3-oxadiazol-3-ium-5-yl)((2-(trifluoromethyl)-pyridin-4-yl)carbamoyl)amide]?
A: IC50 [2]: 100 to 1000 nM; EC50 (ZIKV replicon; [4]): 100 to 1000 nM

Q: Which results are given for `COC(=O)c1ccc(NC(=O)[N-]c2c[n+](Cc3ccc(-c4c(C)ncnc4C)cc3)no2)cc1C(F)(F)F` [Example 262, (3-(4-(4,6-Dimethylpyrimidin-5-yl)benzyl)-1,2,3-oxadiazol-3-ium-5-yl)((4-(methoxy-carbonyl)-3-(trifluoromethyl)phenyl)carbamoyl) amide]?
A: IC50 [2]: 100 to 1000 nM; EC50 (ZIKV replicon; [4]): 100 to 1000 nM

Q: With `CN(C)C[C@H]1CC[C@H]([n+]2cc([N-]C(=O)Nc3cc(NC(=O)Cc4cccc(Cl)c4)cc(C(F)(F)F)c3)on2)CC1` [Example 176, ((3-(2-(3-Chlorophenyl)acetamido)-5-(trifluoromethyl)phenyl)carbamoyl)(3-((1R,4R)-4-((dimethylamino)methyl)cyclohexyl)-1,2,3-oxadiazol-3-ium-5-yl)amide] as the compound, how does the IC50 [2] read?
A: 100 to 1000 nM

Q: And the EC50 (ZIKV replicon; read-out: ZIKA Cell_Nanoluc)?
A: 1000 to 20000 nM

Q: What does the source list for `Cc1nsc(C)c1-c1ccc(C[n+]2cc([N-]C(=O)Nc3ccnc(C(F)(F)F)c3)on2)cc1` [Example 211, (3-(4-(3,5-Dimethylisothiazol-4-yl)benzyl)-1,2,3-oxadiazol-3-ium-5-yl)((2-(trifluoromethyl)-pyridin-4-yl)carbamoyl)amide]?
A: IC50 [2]: 100 to 1000 nM; EC50 (ZIKV replicon; [4]): 1000 to 20000 nM

Q: For `Cc1cnn(C2COC2)c1-c1ccc(C[n+]2cc([N-]C(=O)Nc3ccnc(C(F)(F)F)c3)on2)cc1` [Example 239, (3-((4-(4-Methyl-2-(oxetan-3-yl)pyrazol-3-yl]phenyl)methyl)oxadiazol-3-ium-5-yl)-((2-(trifluoromethyl)pyridin-4-yl)carbamoyl)-azanide], which IC50 [2] is on record?
A: < 100 nM

Q: What about the EC50 (ZIKV replicon; read-out: ZIKA Cell_Nanoluc) of the same compound?
A: < 100 nM

Q: Which IC50 [2] does the source give for `Cc1ncnc(C)c1-c1ccc(C[n+]2cc([N-]C(=O)Nc3ccc(C#N)c(C(F)(F)F)c3)on2)cc1` [Example 207, ((4-Cyano-3-(trifluoromethyl)phenyl)-carbamoyl)(3-(4-(4,6-dimethylpyrimidin-5-yl)benzyl)-1,2,3-oxadiazol-3-ium-5-yl)amide] here?
A: 100 to 1000 nM

Q: What about the EC50 (ZIKV replicon; [4]) of the same compound?
A: 100 to 1000 nM

Q: Which results are given for `CN1CCc2ccccc2C1C[n+]1cc([N-]C(=O)Nc2ccnc(C(F)(F)F)c2)on1` (racemic) [Example 181, rac-(3-((2-Methyl-1,2,3,4-tetrahydroisoquinolin-1-yl)methyl)-1,2,3-oxadiazol-3-ium-5-yl)((2-(trifluoromethyl)pyridin-4-yl)carbamoyl)amide]?
A: IC50 [2]: < 100 nM; EC50 (ZIKV replicon; [4]): 100 to 1000 nM
